In paper PMC8769378, “Underlining the Importance of Peripheral Protic Functional Groups to Enhance the Proton Exchange of Gd-Based MRI Contrast Agents” (Inorganic Chemistry, 2021):

Key:
[1] = Stability and protonation constants of Ca^II complexes by pH potentiometry; type: physicochemical
Description: The metal complexes of biomedical interest must show a high in vivo stability, which includes high thermodynamic stability and kinetic inertness to allow targeting applications and to avoid possible toxic effects derived by metal ion and ligand release via transmetalation or transchelation reactions.[2],[3],[13] The protonation constants of L2 as well as the stability and the protonation constants of GdL2 and those of the most important endogenous divalent metal complexes (Ca^II-, Zn^II-, and Cu^II) were determined by pH potentiometry (Table 1 and Table S1). In the case of GdL1, we were interested in determining the dissociation constant of the hydroxyl group that was measured also by pH potentiometry (Table 1). […]
The stability and protonation constants of Ca^2+, Zn^2+, and Cu^2+ complexes formed with the […] ligand were determined by pH potentiometric titration. […] The protonation constants of the GdL1 and GdL2 complexes were determined using pH potentiometry by titrating the preprepared complexes from pH = 3.0 to pH = 12 for GdL2 and from pH = 4.0 to pH = 12 for GdL1 with 0.2 M NaOH. The stability constants of GdL2 were determined by the “out-of-cell” technique because of the slow formation reaction. The pH range of the complexation equilibria and the time needed to reach the equilibria were determined by relaxometry for the formation of GdL2. […]

[2] = Protonation constants of the ligands by pH potentiometry; type: physicochemical; settings: I = 0.15 M NaCl, 298 K
Description: The metal complexes of biomedical interest must show a high in vivo stability, which includes high thermodynamic stability and kinetic inertness to allow targeting applications and to avoid possible toxic effects derived by metal ion and ligand release via transmetalation or transchelation reactions.[2],[3],[13] The protonation constants of L2 as well as the stability and the protonation constants of GdL2 and those of the most important endogenous divalent metal complexes (Ca^II-, Zn^II-, and Cu^II) were determined by pH potentiometry (Table 1 and Table S1). In the case of GdL1, we were interested in determining the dissociation constant of the hydroxyl group that was measured also by pH potentiometry (Table 1). Experimental details and the definitions and equations used for the evaluation of the equilibrium and kinetic data are summarized in the SI.
The chemicals used for the experiments were of the highest analytical grade. The concentrations of the CaCl2, ZnCl2, CuCl2, and GdCl3 solutions were determined by complexometric titration with standardized Na2H2EDTA and xylenol orange (ZnCl2, and GdCl3), murexid (CuCl2), and Patton and Reeder (CaCl2) as indicators. The concentration of the H3L1 and H4L2 was determined by pH potentiometric titration in the presence and absence of a large (40-fold) excess of CaCl2. The pH potentiometric titrations were performed with standardized 0.2 M NaOH.
For the pH measurements and titrations, the Metrohm 888 Titrando titration workstation Metrohm-6.0234.110 combined electrode was used. Equilibrium measurements were carried out at a constant ionic strength (0.15 M NaCl) in 6 mL samples at 25 °C. The solutions were stirred, and N2 was bubbled through them. The titrations were made in the pH range 1.7–12.0. KH-phthalate (pH = 4.005) and borax (pH = 9.177) buffers were used to calibrate the pH meter. For the calculation of [H^+] from the measured pH values, the method proposed by Irving et al. was used as follows.[34] A 0.01 M HCl solution was titrated with standardized NaOH solution at 0.15 M NaCl ionic strength. The differences (A) between the measured (pHread) and calculated (−log[H^+]) pH values were used to obtain the equilibrium H^+ concentration from the pH values measured in the titration experiments (A = 0.024). For the equilibrium calculations, the stoichiometric water ionic product (pKw) was also needed to calculate [OH^–] values under basic conditions. The VNaOH–pHread data pairs of the HCl–NaOH titration obtained in the pH range 10.5–12.0 were used to calculate the pKw value (pKw = 13.79).

CaHL (log K, protonation constant of the complex) ([1]; 0.15 M NaCl, 25 °C): 5.20 (5)
CaL (log K, stability constant) ([1]; I = 0.15 M NaCl, 298 K): 11.63 (1)
log K5^H ([2]; first line headed log K5^H): 2.47 (4)
log K1^H ([2]; ligand protonation constant): 8.95 (3)
log K2^H ([2]; ligand protonation constant): 8.95 (2)
log K3^H ([2]; ligand protonation constant): 4.22 (3)
log K4^H ([2]; ligand protonation constant): 3.74 (3)
log K5^H ([2]; second line headed log K5^H (sixth constant)): 1.75 (4)
Structure (SMILES): O=C(O)CN1CCN(CC(=O)O)CCN(C[C@@H](O)C(=O)O)CCN(CC(=O)O)CC1 [L2, (R)2,2′,2″-(10-(2-Carboxy-2-hydroxyethyl)-1,4,7,10-tetraazacyclododecane-1,4,7-triyl) Triacetic Acid]
